# Tested on: HT29-18-C1 cells
# Experiment: Trypan blue dye exclusion, HT29-18-C1
# Format: cell-based, human
# Description: HT29-18-C1 cells were synchronised in G1 by serum deprivation. 5% FCS was added at time 0 and cells were simultaneously treated (o) or not (o) exposed to 10 μM HD. During 24 h and thereafter cultured in 5% FCS-containing medium. Cell number was determined every 12 h for a 72 h period using a hemocytometer. The kinetics of growth inhibition are given on FIG. 9A. […] Serum-treated cells (time 0) were exposed to various HD concentrations and counted after 24 h. The results are given on FIG. 9B. The number of non-serum stimulated cells ( ? ) is indicated for comparison. […] Trypan blue dye exclusion indicated little toxicity associated with 10 and 80 μM HD at 24 h (>95% and 90% viability, respectively). This antiproliferative effect of HD appears to be reversible. In fact, cells slowly began to proliferate again after 72 h culture.
structure (smiles),measurement,setting,value
"NC1=NC(=O)C(=C2CCNC(=O)c3[nH]c(Br)cc32)N1 [hymenialdisine, 4-(2-amino-4-oxo-2-imidazolin-5-ylidene)-2-bromo-4,5,6,7-tetrahydropyrrolo (2,3-c) azepine-8-one]",viability (trypan blue),10 μM HD at 24 h,> 95%
same,viability (trypan blue),80 μM HD at 24 h,90%
